Test results published in patent US20260008862A1, “Bispecific Anti-BCMA x Anti-CD3 Antibodies and Uses Thereof” (Regeneron Pharmaceuticals, Inc., priority 2018, published 2026).
“Also recorded” adds a separate entry of the source.

Key:
[1] = test system: BCMA+ MOLP-8-luciferase tumors; assay: MOLP-8-luciferase intravenous xenogenic tumor model, BLI (Example 14); type: in vivo, mouse; details: 4 mg/kg on days 0, 3 and 7
Method: To determine the in vivo efficacy of anti-BCMA×anti-CD3 bispecific antibodies (Abs), a xenogenic tumor study was performed. On day −11, immunodeficient NOD.Cg-Prkdc^scidIl2rg^tm1Wji/SzJ (NSG) mice were intraperitoneally injected with 4×10^6 human peripheral blood mononuclear cells (PBMC) from a normal, healthy donor. On day 0, the mice were intravenously administered 2×10^6 BCMA^+ MOLP-8 human multiple myeloma tumor cells that were engineered to also express firefly luciferase (MOLP-8-luciferase cells). […] The mice were administered these Abs twice more on days 3 and 7, for a total of three doses. Tumor growth was assessed over 48 days by measuring tumor bioluminescence (BLI) in anesthetized animals. As a positive control, a group of mice (n=5) was given only MOLP-8-luciferase cells, but not PBMC or antibody.
Implantation and measurement of xenogenic tumors: On day −11, immunodeficient NOD.Cg-Prkdc^scidIl2rg^tm1Wji/SzJ (NSG) mice were intraperitoneally injected with 5×10^6 human PBMC from a normal, healthy donor. […] Tumor growth was assessed over 48 days by measuring tumor BLI in anesthetized animals. […]
Measurement of xenogenic tumor growth: BLI imaging was used to measure tumor burden. […] Image acquisition was carried out with the field of view at D, subject height of 1.5 cm, and medium binning level with automatic exposure time determined by the Living Image Software. […]

[2] = test system: MC38/BCMA tumors; assay: Syngenic MC38/BCMA tumor model, combination with anti-PD-1, second experiment (Example 21); type: in vivo, mouse; details: REGN5458 0.04 or 0.4 mg/kg plus anti-PD-1 4 mg/kg
Text: Implantation and measurement of syngenic tumors: C57BL/6 mice that express human CD3deg in place of murine CD3deg (CD3-humanized mice) were subcutaneously implanted with 1×10^6 MC38 colon carcinoma cells that have been engineered to express full-length human BCMA (MC38/BCMA).
Calculation of syngenic tumor growth and inhibition: In order to determine tumor volume by external caliper, the greatest longitudinal diameter (length in mm) and the greatest transverse diameter (width in mm) were determined. Tumor volumes based on caliper measurements were calculated by the formula: Volume (mm^3)=(length×width^2)/2.

[3] = biological target: T1, human BCMA-MFC (Homo sapiens, UniProt Q02223); assay: SPR (Biacore 4000) binding kinetics to human BCMA-MFC; details: 25° C.
T1 construct: (human BCMA-MFC); made in house
T1 sequence (Q02223 with tags, fused parts or gaps): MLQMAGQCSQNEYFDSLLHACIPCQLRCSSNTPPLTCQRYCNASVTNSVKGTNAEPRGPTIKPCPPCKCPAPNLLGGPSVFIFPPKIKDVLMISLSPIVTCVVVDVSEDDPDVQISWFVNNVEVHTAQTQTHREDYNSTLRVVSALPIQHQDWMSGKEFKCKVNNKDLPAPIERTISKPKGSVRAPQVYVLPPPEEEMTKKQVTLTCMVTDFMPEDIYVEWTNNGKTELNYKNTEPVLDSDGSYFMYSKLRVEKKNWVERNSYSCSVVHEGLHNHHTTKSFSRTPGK
Method: (§1) The CM5 Biacore sensor surface was derivatized by amine coupling with a monoclonal mouse anti-human Fc antibody (GE, #BR-11008-39) to capture purified anti-BCMA mAbs and anti-BCMA×anti-CD3 bispecific mAbs. All Biacore binding studies were performed in a buffer composed of 0.01 M HEPES pH 7.4, 0.15M NaCl, 3 mM EDTA, 0.05% v/v Surfactant P20 (HBS-ET running buffer). […] Antigen samples were then injected over the anti-BCMA and anti-BCMA×anti-CD3 bispecific mAbs captured surfaces at a flow rate of 30 μL/minute. Antibody-reagent association was monitored for 5 minutes while dissociation in HBS-ET running buffer was monitored for 10 minutes. All of the binding kinetics experiments were performed at 25° C. Kinetic association (ka) and dissociation (kd) rate constants were determined by fitting the real-time sensorgrams to a 1:1 binding model using Scrubber 2.0c curve fitting software. Binding dissociation equilibrium constants (KD) and dissociative half-lives (t½) were calculated from the kinetic rate constants as: […]

[4] = test system: monkey BCMA-MMH; assay: SPR (Biacore 4000) binding kinetics to monkey BCMA-MMH; details: 25° C.
Sequence of monkey BCMA-MMH (as listed by the source): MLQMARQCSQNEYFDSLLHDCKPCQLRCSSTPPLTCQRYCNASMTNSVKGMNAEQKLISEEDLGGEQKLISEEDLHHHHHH
Method: as §1

[5] = test system: monkey BCMA-MFC; assay: SPR (Biacore 4000) binding kinetics to monkey BCMA-MFC; details: 25° C.
Sequence of monkey BCMA-MFC (as listed by the source): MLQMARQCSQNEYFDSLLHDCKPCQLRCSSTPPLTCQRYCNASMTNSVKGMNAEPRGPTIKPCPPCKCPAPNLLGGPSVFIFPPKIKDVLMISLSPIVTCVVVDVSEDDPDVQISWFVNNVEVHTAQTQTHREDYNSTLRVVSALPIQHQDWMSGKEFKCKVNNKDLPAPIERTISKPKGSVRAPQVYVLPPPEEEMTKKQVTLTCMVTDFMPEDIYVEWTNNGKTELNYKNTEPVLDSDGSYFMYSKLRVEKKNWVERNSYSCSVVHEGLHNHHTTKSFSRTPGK
Method: as §1

[6] = biological target: T2, primary cynomolgus CD8+ T cells (Macaca fascicularis, UniProt Q95LI5+Q95LI8); assay: FACS binding to primary cynomolgus CD8+ T cells; details: median EC50, FACS binding
T2 construct: endogenous in cells; host or cells: primary cynomolgus CD8+ T cells (gated CD8+/CD16-)
T2 sequence (Q95LI5 22-198): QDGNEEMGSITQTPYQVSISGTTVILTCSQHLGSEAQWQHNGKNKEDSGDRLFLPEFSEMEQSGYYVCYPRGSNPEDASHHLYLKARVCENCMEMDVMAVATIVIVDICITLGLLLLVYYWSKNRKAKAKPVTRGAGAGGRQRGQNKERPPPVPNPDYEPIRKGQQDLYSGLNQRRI
T2 sequence (Q95LI8 22-171): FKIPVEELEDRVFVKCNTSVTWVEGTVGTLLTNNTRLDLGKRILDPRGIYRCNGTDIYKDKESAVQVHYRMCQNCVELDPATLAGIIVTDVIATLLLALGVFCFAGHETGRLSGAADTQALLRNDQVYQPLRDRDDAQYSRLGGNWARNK
T2 sequence (Q95LI7 23-181 partner): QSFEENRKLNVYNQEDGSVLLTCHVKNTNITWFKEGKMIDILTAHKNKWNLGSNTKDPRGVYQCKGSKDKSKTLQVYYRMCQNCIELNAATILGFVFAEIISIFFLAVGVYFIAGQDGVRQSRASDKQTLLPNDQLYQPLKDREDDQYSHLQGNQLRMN
Method: Flow cytometric analysis was utilized to determine binding of BCMA×CD3 bispecific antibodies to human and cynomolgus CD3 (Jurkat cells, mfCD3 engineered Jurkat cells, primary human CD8+ and cynomolgus CD8+ T cells). Briefly, 1e05 cells/well were incubated in the presence of FACS wash with block (PBS+1% filtered FBS+5% mouse serum) with a serial dilution of BCMA×CD3 and control antibodies for 30 minutes on ice. After incubation, the cells were washed twice with cold FACS wash (PBS+1% filtered FBS) and bound antibody was detected by incubating with Alexa647-conjugated anti-human secondary antibody on ice for an additional 30 minutes. Wells containing no antibody or secondary only were used as a control. For the detection of monkey and human T cells, a cocktail of human and cynomolgus cross-reactive antibodies to CD4, CD8 and CD16 was added to the anti-human secondary. After incubation, cells were washed, re-suspended in 200 μL cold PBS containing 1% filtered FBS and analyzed by flow cytometry on a BD FACS Canto II. Cells were gated by FSC-H by FSC-A to select singlet events, followed by side and forward scatters to select for live events. For monkey T cells, additional gating on CD8+/CD16− cells was performed.
EC50 values for FACS binding were calculated using 4-parameter non-linear regression analysis in Prism software.

| Substance | tumor growth (in words) [1] | anti-tumor efficacy of the combination (in words) [2] | ka [3] [M⁻¹ s⁻¹] | kd [3] [s⁻¹] | ka [4] [M⁻¹ s⁻¹] | kd [4] [s⁻¹] | ka [5] [M⁻¹ s⁻¹] | kd [5] [s⁻¹] | Mf (Cyno) CD8+ T cells EC50 [M] [6] |
| --- | --- | --- | --- | --- | --- | --- | --- | --- | --- |
| REGN5458: anti-BCMA×anti-CD3 bispecific antibody: BCMA HCVR of mAb21581 (SEQ 66), CD3 HCVR of mAb7221G (SEQ 90), common LCVR SEQ 82 | delayed the growth | superior anti-tumor efficacy | – | – | – | – | – | – | – |
| REGN5459: anti-BCMA×anti-CD3 bispecific antibody: BCMA HCVR of mAb21581 (SEQ 66), CD3 HCVR of mAb7221G20 (SEQ 98), common LCVR SEQ 82 | – | – | 449000 | ≤1e-05 | 223000 | 0.00864 | 482000 | 7.15e-05 | did not bind; also recorded: No binding |
